Measurements taken from US20190287644A1, “Correlation Method To Identify Relevant Genes For Personalized Treatment Of Complex Disease” (Northeastern University, priority 2018, published 2019).

Columns and labels:
[1] = tested on: neonatal rat ventricular myocytes (NRVMs); assay: Cardiomyocyte cell cross-sectional area; assay type: cell-based; details: cells transfected with control siRNA, following ISO/PE treatment
Excerpt: (§1) Right ventricular myocytes were isolated and cultured, as reported using 2-4 day old rats. Myocytes and fibroblasts were separated with Percoll density gradient. For knockdown experiments cells were transfected with Hes1 siRNA using lipofectamine RNAimax (life technologies).
Quantification of cardiomyocyte cell cross-sectional area was done following transfection with either control or Hes1 siRNA and a 48-hour treatment with control or isoproterenol or phenylepherine containing media. Images were taken on a Nikon Eclipse TE2000-U microscope. Images were analyzed using the Nikon Imagine System (NIS). 150 cells were used to compute the SEM.

Nppa and Nppb = assay: Expression of hypertrophic markers Nppa and Nppb in neonatal rat ventricular myocytes (qPCR); assay type: cell-based; details: NRVMs transfected with control siRNA
Procedure: as §1
RNA isolation from cells was performed using Qiazol lysis reagent. cDNA synthesis was performed using the High Capacity Reverse Transcription cDNA Kit (Life Technologies). qPCR was performed using the LightCycler 480 (Roche).

[2] = tested on: Hybrid Mouse Diversity Panel (HMDP) strains; assay: ISO-induced cardiac hypertrophy (total heart weight) in the Hybrid Mouse Diversity Panel; assay type: in vivo; details: across HMDP strains, three weeks after implantation of ISO pump (30 mg per kg per day, 21 days)
Procedure: 30 mg per kg body weight per day of Isoproterenol (ISO) was administered for 21 days in 8-10 week old female mice using ALZET osmotic mini-pumps, which were surgically implanted intraperitoneally. All animal experiments were conducted following guidelines established and approved by the University of California, Los Angeles Institutional Animal Care and Use Committee (IACUC) and housed in an IACUC-approved vivarium with daily monitoring by vivarium personnel.
As each mouse in a strain is genetically identical, several mice from the same strain were used for measuring the cardiac hypertrophic response to ISO treatment. […] Cardiac hypertrophy for a given strain was calculated as the increase in average total heart weight after ISO treatment compared to control mice.
One can also perform an entirely novel type of differential gene expression analysis owing to the fact that, in addition to control and treated subjects belonging to the same strain having the same genetic background, the change of heart mass in response to ISO, i.e., the ratio m′i/mi of total heart mass before (mi) and after ISO treatment (m′i) for strain i, can be measured for all strains (i=1, 2, . . . , N) to assess the degree of hypertrophy among different strains. […]

Row | Structure (SMILES) | cellular cross-sectional area [1] | increase of Nppa expression (Nppa and Nppb) [fold] | increase of Nppb expression (Nppa and Nppb) [fold] | increase of heart mass [2] [%]
1 | CNC[C@H](O)c1cccc(O)c1 [PE, phenylephrine] | doubled | 11 | 13 | –
2 | CC(C)NCC(O)c1ccc(O)c(O)c1 (stereo not shown) [ISO, isoproterenol] | doubled | 3.5 | 7.9 | ≤ 80
